Results taken from PubChem BioAssay (NCI).
Where “and” joins values, the source holds several entries; their conditions need not be identical. Equal entries are not always repeated.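 Exposure lasted 48 hours, with cells grown in 96-well plates and compounds tested at five concentrations. GI50 marks 50% less growth. TGI: total growth inhibition.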

Columns and labels:
Assay in all cases: DTP human tumour cell line panel, 48 h
LOX IMVI melanoma = tested on: LOX IMVI melanoma
MCF7 breast = tested on: MCF7 breast
A498 renal = tested on: A498 renal
SR leukemia = tested on: SR leukemia
COLO 205 colon = tested on: COLO 205 colon
IGROV1 ovarian = tested on: IGROV1 ovarian
HOP-62 NSCLC = tested on: HOP-62 NSCLC
MALME-3M melanoma = tested on: MALME-3M melanoma
SF-295 CNS = tested on: SF-295 CNS
SNB-75 CNS = tested on: SNB-75 CNS

SMILES	GI50 (LOX IMVI melanoma)	TGI (LOX IMVI melanoma)	GI50 (MCF7 breast)	TGI (MCF7 breast)	GI50 (A498 renal)	TGI (A498 renal)	GI50 (SR leukemia)	TGI (SR leukemia)	GI50 (COLO 205 colon)	TGI (COLO 205 colon)	GI50 (IGROV1 ovarian)	TGI (IGROV1 ovarian)	GI50 (HOP-62 NSCLC)	TGI (HOP-62 NSCLC)	GI50 (MALME-3M melanoma)	TGI (MALME-3M melanoma)	GI50 (SF-295 CNS)	TGI (SF-295 CNS)	GI50 (SNB-75 CNS)	TGI (SNB-75 CNS)
COc1cc2ncnc(Oc3ccc(NC(=O)Nc4ccc(CN5CCOCC5)c(C(F)(F)F)c4)c4ccccc34)c2cc1OC	1.09 µM	2.82 µM	0.363 µM	10.7 µM	0.0424 µM	0.584 µM	0.752 µM	6.02 µM	0.558 µM	3.91 µM	0.517 µM	3.25 µM	2.5 µM	10.1 µM	0.302 µM	1.54 µM	1.36 µM	5.54 µM	0.957 µM	12.8 µM
CCC(=O)NC1=C(Cl)C(=O)C(NC(=O)CC)=C(Cl)C1=O	16.3 µM	31.2 µM	9.51 µM	28.3 µM	38.2 µM	> 72.6 µM	8.13 µM	> 23.2 µM	5.97 µM	10.8 µM	20.6 µM	37 µM	> 47.7 µM	> 65.1 µM	5.17 µM	10.1 µM	> 39.2 µM	> 53.8 µM	13.7 µM	18.1 µM
OC(c1cc(C(F)(F)F)nc2c(Cl)cc(Cl)cc12)C1CCCCN1 (stereo unspecified)	–	14.8 µM	–	> 25.8 µM	–	> 51.4 µM	–	5.32 µM	–	9.29 µM	–	18.2 µM	–	18.5 µM	–	> 36.9 µM	–	25.4 µM	–	24.4 µM
COc1cc2c(cc1OCC(=O)Nc1ccc(Cl)cc1C(=O)c1ccccc1Cl)N=CC1CCCN1C2=O (stereo unspecified)	12.1 µM	26.2 µM	5.27 µM	17.5 µM	12.3 µM	24.9 µM	3.7 µM	28 µM	14.2 µM	30.8 µM	3.9 µM	16.4 µM	13.8 µM	28.6 µM	20.1 µM	37 µM	8.48 µM	22.9 µM	14.2 µM	28.8 µM
COc1cccc(N2CC(O)=C(c3nc4ccccc4s3)C2=N)c1	0.459 µM	> 100 µM	0.289 µM	> 100 µM	0.33 µM	20 µM	–	> 100 µM	0.472 µM	> 100 µM	0.277 µM	> 75.6 µM	0.56 µM	23.4 µM	0.266 µM	> 100 µM	0.0744 µM	6.09 µM	–	1.98 µM
CCN(CC)CCOc1nc2ccccc2c2c1-c1ccc(OC)cc1C2=O	0.432 µM	1.81 µM	0.345 µM	2.23 µM	0.728 µM	2.18 µM	0.316 µM	1.07 µM	0.49 µM	1.88 µM	0.384 µM	2.63 µM	1.13 µM	–	0.628 µM	1.97 µM	1.91 µM	12.4 µM	1.44 µM	5.19 µM
O=C1C2=C(C(=O)c3ccccc31)C(O)(S(=O)(=O)O)C(O)(S(=O)(=O)O)C1N=CC=CC21 (stereo unspecified)	3.1 µM and 2.84 µM	54.9 µM and 20.3 µM	4.9 µM and 3.26 µM	29.1 µM and 27.2 µM	10.1 µM and 3.3 µM	40.1 µM and 12.7 µM	4.58 µM and 1.14 µM	> 100 µM and 50.1 µM	7.08 µM and 4.11 µM	29.9 µM and 61.5 µM	2.19 µM	9.5 µM	5.36 µM and 3.03 µM	31.8 µM and 19.2 µM	10.3 µM and 14.8 µM	36.7 µM and 39 µM	2.57 µM and 1.13 µM	6.68 µM and 8.19 µM	4.08 µM and 3.17 µM	41.9 µM and 19.6 µM
COc1ccc2c3ccnc(C(F)(F)F)c3n(CCCCN)c2c1	4.38 µM	17 µM	4.61 µM	17.4 µM	5.25 µM	18 µM	2.64 µM	9.52 µM	2.74 µM	12.1 µM	3.39 µM	14.5 µM	8.54 µM	21.3 µM	2.02 µM	5.36 µM	6.71 µM	22.6 µM	2.19 µM	12.8 µM
COc1cc2[nH]c3c(c2cc1OC)CCN[C@@]31CC[C@@]2(CC3c4c(cc(OC)c(O)c42)CCN3C)C[C@@H]1OC (stereo partly specified)	–	41.4 µM	–	> 100 µM	–	> 96.9 µM	–	36.6 µM	–	38.4 µM	–	> 100 µM	–	> 100 µM	–	33.8 µM	–	47.3 µM	–	54 µM
Cn1nc(C(F)(F)F)cc1-c1cc(Cl)c(OCc2ccc(Cl)cc2)c(-c2ccc(Cl)c(C(F)(F)F)c2)c1O	1.16 µM	3.12 µM	1.01 µM	5.33 µM	0.251 µM	1.09 µM	0.651 µM	2.11 µM	0.718 µM	2.39 µM	1.56 µM	6.42 µM	1.26 µM	3.3 µM	1.06 µM	2.57 µM	0.997 µM	2.55 µM	0.984 µM	2.68 µM
CC1=CC2(C)/C=C(C)/C=C\CC(O)/C=C3/C=CC(=C4C(=O)OC2(CC1C)C4=O)OC3 (stereo unspecified)	1.63 µM	3.2 µM	2.11 µM	20.7 µM	2.65 µM	8.11 µM	1.59 µM	> 100 µM	1.47 µM	3.65 µM	2.93 µM	8.93 µM	8.63 µM	26.2 µM	2.14 µM	5.13 µM	8.31 µM	32 µM	2.84 µM	17.3 µM
CCOC(=O)C1=C(Nc2ccc(OC)cc2)C(N)=NC1=N	5.47 µM	> 100 µM	0.587 µM	> 100 µM	2.71 µM	8.11 µM	2.31 µM	> 100 µM	3.07 µM	10.1 µM	5.5 µM	> 100 µM	6.23 µM	> 100 µM	7.29 µM	> 100 µM	2.71 µM	8.32 µM	3.03 µM	> 100 µM
CC1Cc2c(Cl)ncnc2N(C)c2ccccc21 (stereo unspecified)	1.71 µM	3.43 µM	3.17 µM	14.5 µM	1.98 µM	5.41 µM	3.33 µM	32.6 µM	1.77 µM	3.41 µM	3.78 µM	> 100 µM	3.08 µM	14.7 µM	2.03 µM	7.5 µM	3.28 µM	37.4 µM	0.352 µM	33.5 µM
COc1cc(OC)c(/C=C/C(=O)c2c(OC)cc(OC)cc2OC)c(OC)c1	0.782 µM	4.54 µM	1.41 µM	> 100 µM	0.27 µM	4.85 µM	0.206 µM	0.761 µM	1.08 µM	3.96 µM	0.577 µM	25.2 µM	1.27 µM	> 100 µM	1.07 µM	> 100 µM	0.75 µM	> 21 µM	1.83 µM	> 26.2 µM
CC(=O)OC1CC2(C)C(=CC1C1SCCS1)CCC1C2CCC2(C)C(OC(C)=O)CCC12 (stereo unspecified)	–	> 100 µM	–	> 100 µM	–	> 100 µM	–	> 100 µM	–	> 100 µM	–	> 100 µM	–	> 100 µM	–	> 100 µM	–	90 µM	–	63.1 µM
Nc1nc2cc(Cl)ccc2n1N	–	> 100 µM	–	> 100 µM	–	> 100 µM	–	> 100 µM	–	> 100 µM	–	> 100 µM	–	> 100 µM	–	> 100 µM	–	> 100 µM	–	> 100 µM
COc1c(C(N)=O)cc(-c2ccc(Cl)cc2)cc1-c1ccc(S(N)(=O)=O)cc1	12.4 µM	> 25 µM	11.9 µM	> 25 µM	9.03 µM	> 23.3 µM	6 µM	15.7 µM	> 17.6 µM	> 25 µM	10.4 µM	> 25 µM	18.8 µM	> 25 µM	12.7 µM	> 25 µM	11.2 µM	> 25 µM	7.76 µM	> 25 µM
CC(C)[C@@H](C(=O)O[C@@H]1/C=C/C(=O)O[C@@H](C)CCC/C=C/[C@@H]2C[C@H](O)C[C@H]21)N(C)C	17 µM	39.9 µM	11.9 µM	43.1 µM	2.54 µM	7.97 µM	14.9 µM	38.1 µM	8.95 µM	25.5 µM	30.3 µM	> 89 µM	22.3 µM	> 100 µM	3.89 µM	22 µM	6 µM	24.9 µM	2.89 µM	27.7 µM
COC(=O)Nc1nc2ccc(C(=O)c3cccc(I)c3)cc2[nH]1	0.0612 µM	3.92 µM	0.0369 µM	15.9 µM	0.0434 µM	0.614 µM	0.0314 µM	–	0.0472 µM	4.55 µM	0.11 µM	8.82 µM	0.304 µM	38.5 µM	0.274 µM	24.1 µM	0.0647 µM	5.94 µM	0.0514 µM	15.4 µM
COc1ccc(C(=O)/C=C/c2ccc(OCc3cccc(C(F)(F)F)c3)c(OC)c2)cc1OC	32.8 µM	> 1000 µM	27.4 µM	> 1000 µM	207 µM	> 1000 µM	33.8 µM	> 1000 µM	61.6 µM	> 1000 µM	60.2 µM	> 1000 µM	51.5 µM	> 1000 µM	271 µM	> 1000 µM	70.3 µM	> 1000 µM	31.6 µM	> 1000 µM
